Measurements published in BigSolDB 2.1.

Structure (SMILES): COc1cc([N+](=O)[O-])ccc1N
- solubility (mole fraction) (in isopropanol, 278.15 K): 0.00186
- solubility (mole fraction) (in isopropanol, 283.15 K): 0.00221
- solubility (mole fraction) (in isopropanol, 288.15 K): 0.00265
- solubility (mole fraction) (in isopropanol, 293.15 K): 0.00322
- solubility (mole fraction) (in isopropanol, 298.15 K): 0.00396
- solubility (mole fraction) (in isopropanol, 303.15 K): 0.00492
- solubility (mole fraction) (in isopropanol, 308.15 K): 0.00595
- solubility (mole fraction) (in isopropanol, 313.15 K): 0.00719
- solubility (mole fraction) (in isopropanol, 318.15 K): 0.00855
- solubility (mole fraction) (in isopropanol, 323.15 K): 0.0101
- solubility (mole fraction) (in water, 278.15 K): 4.03e-06
- solubility (mole fraction) (in water, 283.15 K): 5.68e-06
- solubility (mole fraction) (in water, 288.15 K): 7.36e-06
- solubility (mole fraction) (in water, 293.15 K): 9.49e-06
- solubility (mole fraction) (in water, 298.15 K): 1.27e-05
- solubility (mole fraction) (in water, 303.15 K): 1.74e-05
- solubility (mole fraction) (in water, 308.15 K): 2.36e-05
- solubility (mole fraction) (in water, 313.15 K): 3.15e-05
- solubility (mole fraction) (in water, 318.15 K): 4.23e-05
- solubility (mole fraction) (in water, 323.15 K): 5.49e-05
